From PMC10959927, “Platinum iodido drugs show potential anti-tumor activity, affecting cancer cell metabolism and inducing ROS and senescence in gastrointestinal cancer cells” (Communications Biology, 2024)
Where “and” joins values, the source holds several entries; their conditions need not be identical. Equal values may be shown once.

How the values were obtained:
Assay type in all cases: cell-based, human
AGS cells [1] = test: SA-β-Gal histochemical staining; details: Fig. S4A
Method: SA-β-Gal activity was measured following two different approaches. (i) AGS, MKN45 and PANC1 cells (5 × 10^4) were seeded in 24-multiwell dishes and incubated overnight. […] For flow cytometry cell senescence detection, cells were tripsinized, fixed for 15 min with PFA 4% and stained with the CellEvent Senescense Green Flow Cytometry Assay Kit (C10840, Invitrogen) according to manufacturer’s instructions. CellEvent Senescense Green Probe was used at a 1:500 dilution and fluorescence was detected using the filter (Ex488nm/Em530/30) BL1 with a 4-laser Attune NxT Acoustic Cytometer (Thermo Fisher Scientific). […] After 3 h, the treatments were removed, new supplemented medium was added, and cells were incubated for an additional 24 h. Finally, SA-β-Gal staining was performed using the Senescence Cells Histochemical Staining Kit (CS0030-1KT) according to the manufacturer’s instructions.

PANC1 cells [2] = test: Western blotting (p-p53, p-JNK, p-p38, p-ERK, p-CHK1/2, Mcl1, BID, BAX); details: for fold change p-ERK vs Tubulin / fold change p-JNK vs Tubulin / fold change p-p38 vs Tubulin / fold change p-p53 vs Tubulin: PANC1, Fig. 4A, replicate values
Method: (§1) Total protein extracts were obtained by adding the lysis buffer: 25 mM HEPES pH 7.5, 0.3 M NaCl, 1.5 mM MgCl2, 0.2 mM EDTA, 0.5 mM DTT, 20 mM β-glicerophosphate, 0.1 mM Na3VO4, 0.1% triton X-100; in the presence of protease inhibitors. Twenty μg of protein per sample were loaded and resolved using 8%, 10% or 15% SDS-PAGE polyacrylamide gels, and then transferred onto PVDF membranes, followed by immunodetection using appropriate antibodies, purchased from Santa Cruz Technology: Mcl-1 (sc-819), Cell Signaling Technology: BIM, BID, BAX (#9942), p-p38 (1:2000, #4631), p-p53^ser15 (#9284), p-ERK1/2 (1:2000, #9106), p-CHK1^ser345 and p-CHK2^ser19 (#9931), Promega Corporation-Spain: p-JNK (#V7932), or Sigma-Aldrich: α-tubulin (1:10000, #TP026). Unless indicated, all antibodies were diluted 1:1000. Secondary antibodies conjugated with horseradish peroxidase were purchased from BioRad, and chemiluminescence detection was performed using ECL (Santa Cruz Biotechnology).

AGS cells [3] = test: as above; details: for fold change p-ERK vs Tubulin / fold change p-JNK vs Tubulin / fold change p-p38 vs Tubulin / fold change p-p53 vs Tubulin: Fig. 4A, replicate values; for fold change BAX vs Tubulin / fold change MCL1 vs Tubulin / fold change BID full length vs Tubulin: Fig. S3B
Method: as §1

PANC1 cells [4] = test: Ratio GSH/GSSG, colorimetric kit
Method: (§2) GSH and GSSG levels were determined in AGS and PANC1 cells after 3 and 24 h of treatment with the compounds (using H2O2 as a positive control) with the Glutathione Colorimetric Detection Kit (ThermoFisher) following the manufacturer’s instructions. Thirty minutes after adding the Colorimetric Detection Reagent and the Reaction Mixture, the absorbance was read at 405 nm. A standard curve was generated with each assay to interpolate the sample results. To measure GSSG, standards and samples must be diluted with the Sample Diluent containing 2-vinylpyridine.

AGS cells [5] = test: Ratio GSH/GSSG, colorimetric kit
Method: as §2

MKN45 cells = test: Immunofluorescence of γ-H2AX foci; details: Fig. 3B; for foci/cell, number of cells in class: cell count
Method: Cells (7 × 10^4) were seeded on 20 mm coverslips. […] Coverslips were incubated for 1 h with the primary antibody (Cell Signaling: H2AX Ser139 (#2595) and 53BP1 (#4937)) at room temperature, followed by a 1 h incubation with the appropriate secondary antibody. DNA was stained with DAPI. Fluorescence microscopy was performed using a NIKON Eclipse 90i. The image analysis was performed using the software program Nikon NIS-Elements and Image J.

## [NH2][Pt]([NH2])([Cl])[Cl] [CDDP, cisplatin, reference compound]
AGS cells [1]
  Fold change % Senescence: 58.33% and 50% and 67.21%
PANC1 cells [2]; PANC1, IC50, 1, 3, 6 or 24 h
  phosphorylation of CHK1/2 (DDR pathway, western blot): induced the phosphorylation
PANC1 cells [2]; PANC1, time 1 h, Fig. S3B
  fold change BAX vs Tubulin: 1.6915 fold change and 0.9781 fold change and 1.332 fold change
  fold change MCL1 vs Tubulin: 0.9288 fold change and 1.014 fold change and 1.02 fold change
PANC1 cells [2]; PANC1, time 3 h, Fig. S3B
  fold change BAX vs Tubulin: 1.86 fold change and 1.118 fold change and 1.518 fold change
  fold change MCL1 vs Tubulin: 1.904 fold change and 2.322 fold change and 1.672 fold change
PANC1 cells [2]; PANC1, time 6 h, Fig. S3B
  fold change BAX vs Tubulin: 1.424 fold change and 1.3785 fold change and 1.29 fold change
  fold change MCL1 vs Tubulin: 1.358 fold change and 1.631 fold change and 1.901 fold change
PANC1 cells [2]; PANC1, time 24 h, Fig. S3B
  fold change BAX vs Tubulin: 1.469 fold change and 1.617 fold change and 1.511 fold change
  fold change BID full length vs Tubulin: 1.745 fold change and 2.178 fold change and 1.991 fold change
  fold change MCL1 vs Tubulin: 1.279 fold change and 1.508 fold change and 1.299 fold change
PANC1 cells [2]; Time 1 h
  fold change p-ERK vs Tubulin: 1.164 fold change and 1.13 fold change and 1.21 fold change
  fold change p-JNK vs Tubulin: 1.373 fold change and 1.201 fold change and 1.17 fold change
  fold change p-p38 vs Tubulin: 1.546 fold change and 1.183 fold change and 0.9863 fold change
  fold change p-p53 vs Tubulin: 1.04 fold change and 1.08 fold change and 0.83 fold change
PANC1 cells [2]; Time 3 h
  fold change p-ERK vs Tubulin: 0.6555 fold change and 1.708 fold change and 1.33 fold change
  fold change p-p38 vs Tubulin: 0.9361 fold change and 0.959 fold change and 0.6722 fold change
  fold change p-p53 vs Tubulin: 1.501 fold change and 1.122 fold change and 1.403 fold change
PANC1 cells [2]; Time 6 h
  fold change p-ERK vs Tubulin: 0.4691 fold change and 2.127 fold change and 1.29 fold change
  fold change p-JNK vs Tubulin: 0.7555 fold change and 0.4269 fold change and 0.7284 fold change
  fold change p-p38 vs Tubulin: 0.8737 fold change and 0.5515 fold change and 0.5907 fold change
  fold change p-p53 vs Tubulin: 2.227 fold change and 1.131 fold change and 2.015 fold change
PANC1 cells [2]; Time 24 h
  fold change p-ERK vs Tubulin: 0.8571 fold change and 2.648 fold change and 1.55 fold change
  fold change p-JNK vs Tubulin: 0.8188 fold change and 0.748 fold change and 1.253 fold change
  fold change p-p38 vs Tubulin: 1.702 fold change and 0.3951 fold change and 0.5063 fold change
  fold change p-p53 vs Tubulin: 2.03 fold change and 4.05 fold change and 2.63 fold change
AGS cells [3]; IC50, 1, 3, 6 or 24 h
  phosphorylation of CHK1/2 (DDR pathway, western blot): induced the phosphorylation
AGS cells [3]; Time 1 h
  fold change p-ERK vs Tubulin: 0.9528 fold change and 0.9782 fold change and 0.8139 fold change
  fold change p-JNK vs Tubulin: 0.895 fold change and 1.558 fold change and 0.8178 fold change
  fold change p-p38 vs Tubulin: 1.508 fold change and 0.8638 fold change and 1.487 fold change
  fold change p-p53 vs Tubulin: 0.9865 fold change and 0.9436 fold change and 1.458 fold change
AGS cells [3]; Time 3 h
  fold change p-ERK vs Tubulin: 1.409 fold change and 0.9423 fold change and 1.158 fold change
  fold change p-JNK vs Tubulin: 1.014 fold change and 1.185 fold change and 0.899 fold change
  fold change p-p38 vs Tubulin: 1.39 fold change and 0.6346 fold change and 1.266 fold change
  fold change p-p53 vs Tubulin: 0.5865 fold change and 1.299 fold change and 1.138 fold change
AGS cells [3]; Time 6 h
  fold change p-ERK vs Tubulin: 2.441 fold change and 1.161 fold change and 1.546 fold change
  fold change p-JNK vs Tubulin: 1.257 fold change and 1.756 fold change and 0.7623 fold change
  fold change p-p38 vs Tubulin: 0.9545 fold change and 1.021 fold change and 0.8104 fold change
  fold change p-p53 vs Tubulin: 1.308 fold change and 1.189 fold change and 1.275 fold change
AGS cells [3]; Time 24 h
  fold change p-ERK vs Tubulin: 2.387 fold change and 2.45 fold change and 1.9989 fold change
  fold change p-JNK vs Tubulin: 1.302 fold change and 2.33 fold change and 0.8503 fold change
  fold change p-p38 vs Tubulin: 0.6414 fold change and 1.823 fold change and 1.149 fold change
  fold change p-p53 vs Tubulin: 3.183 fold change and 2.955 fold change and 1.906 fold change
AGS cells [3]; time 1 h
  fold change BAX vs Tubulin: 1.198 fold change and 1.173 fold change and 0.877 fold change
  fold change MCL1 vs Tubulin: 1.103 fold change and 0.99 fold change and 0.761 fold change
AGS cells [3]; time 3 h
  fold change BAX vs Tubulin: 0.789 fold change and 1.149 fold change and 1.345 fold change
  fold change MCL1 vs Tubulin: 0.575 fold change and 0.967 fold change and 0.513 fold change
AGS cells [3]; time 6 h
  fold change BAX vs Tubulin: 1.098 fold change and 1.54 fold change and 2.188 fold change
  fold change BID full length vs Tubulin: 0.649 fold change and 1.175 fold change and 0.953 fold change
  fold change MCL1 vs Tubulin: 1.101 fold change and 0.938 fold change and 0.603 fold change
AGS cells [3]; time 24 h
  fold change BID full length vs Tubulin: 1.562 fold change and 1.807 fold change and 1.427 fold change
  fold change MCL1 vs Tubulin: 0.943 fold change and 0.926 fold change and 0.668 fold change
PANC1 cells [4]; PANC1, 3, relative to Control = 1
  GSH/GSSG: 0.8204 and 0.833 and 0.8843
PANC1 cells [4]; PANC1, 24, relative to Control = 1
  GSH/GSSG: 0.8133 and 0.9393 and 0.9531
AGS cells [5]; AGS, 3, relative to Control = 1
  GSH/GSSG: 0.992 and 0.9971 and 1.026
AGS cells [5]; AGS, 24, relative to Control = 1
  GSH/GSSG: 0.8767 and 0.8827 and 0.9433
MKN45 cells; class 16-30 foci/cell
  foci/cell, share of cells in class (Suma 100): 6.667
  foci/cell, number of cells in class: 4
MKN45 cells; class 31-45 foci/cell
  foci/cell, share of cells in class (Suma 100): 13.3333
  foci/cell, number of cells in class: 8
MKN45 cells; class 46-60 foci/cell
  foci/cell, share of cells in class (Suma 100): 16.6667
  foci/cell, number of cells in class: 10
MKN45 cells; class <15 foci/cell
  foci/cell, share of cells in class (Suma 100): 0
  foci/cell, number of cells in class: 0
MKN45 cells; class >61 foci/cell
  foci/cell, share of cells in class (Suma 100): 63.3333
  foci/cell, number of cells in class: 38
